Ends that are not written are not given here.
Columns and labels:
Type in all cases: cell-based, mouse
Tyr [1] = experiment: qRT-PCR, Tyr mRNA; details: B16F10, 48 h
Experimental: (§1) A 6-well plate was used to seed B16F10 cells at 1 × 10^5 cells per well prior to overnight incubation in a 5% CO2 humid atmosphere at 37°C. […] Harvesting was conducted via removal of the supernatant, and the cells were rinsed twice in PBS (phosphate-buffered saline). The PureLink™RNA Mini Kit (Invitrogen™, USA) was then used to extract total RNA in line with the guidance of the manufacturer. RNA concentration was assessed at 260 nm with a NanoDrop 2000 UV-Vis spectrophotometer (Thermo Fisher Scientific, Inc.). Oligo-dT primers and a Precision nanoScript II Reverse Transcription Kit (PrimerDesign, Camberley, UK) were used to perform the reverse transcription of 1 µg of total RNA to cDNA in line with the guidance of the manufacturer. MyGo Pro®Real time PCR apparatus (IT-IS International Ltd., Stokesley, UK) was then used to perform the qRT-PCR assays in which 20 µL of PCR reaction contained 1 µL of cDNA, 7 µL of ultrapure water, 1 µL of each primer […], and 10 µL of 2×qPCRBIO SyGreen Mix (PCR Biosystems Ltd, London, UK). […] The relative gene expression level could then be calculated via the cycle threshold (Ct) value, while the role of endogenous control for data normalization was occupied by Gapdh (the housekeeping gene). […]

Trp-1 = experiment: qRT-PCR, Trp-1 mRNA; details: B16F10, 48 h
Experimental: as §1

Mitf = experiment: Western blot, MITF protein
Experimental: (§2) Following this process, the cells were lysed using NP40 Cell Lysis Buffer with protease inhibitor cocktail supplementation. Next, 12% sodium dodecyl sulfate poly-acrylamide (SDS-PAGE) gel electrophoresis was used to extract equal quantities of protein from each sample, with subsequent transfer to PVD (polyvinylidene fluoride) membranes (Millipore, Bedford, MA, USA). The membrane was blocked overnight with 3% skimmed milk (w/v) in TBST with 0.5% Tween 20 at 4 °C and then washed thrice in TBST. The rabbit polyclonal anti-TYR antibody (dilution 1:1000), anti-TRP-1 antibody (dilution 1:1000), anti-TRP-2 antibody and anti-MITF antibody (dilution 1:1000) obtained from Abcam (USA), were used respectively to detect the TYR, TRP-1, TRP-2, and MITF bands. After thrice washing again in TBST, secondary antibodies (dilution 1:5000) were added to the membranes for 1 h of incubation at room temperature before another triplicate washing in TBST. Enhanced chemiluminescence horseradish peroxidase (HRP) substrates (GeneDirex, Taiwan) were then used in line with the guidance of the manufacturer to detect bound antibodies, while β-actin antibody was employed to evaluate the loading control. Gel band detection was performed using ImageJ software (version 1.54), available at https://imagej.net/ij/. The software facilitated the identification and quantification of protein expression levels.

Tyr [2] = experiment: Western blot, TYR protein; details: B16F10, 48 h
Experimental: as §2, with “Western blot analysis was performed to measure TYR (TYR, TRP-1, TRP-2, and MITF) in B16F10 cells in line with the approach discussed by Yoon et al.[65]. whereby the B16F10 cells underwent treatment for 48 h using various peptide amounts ([…]) and also with arbutin (0.2 mM). Following” for “Following”, “Enhanced chemiluminescence horseradish peroxidase (HRP) substrates (GeneDirex, Taiwan) were then used in line with the guidance of the manufacturer to detect bound antibodies, while β-actin antibody was employed to evaluate the loading control. Gel band detection was performed using ImageJ software (version 1.54), available at https://imagej.net/ij/.” left out

Trp-2 = experiment: Western blot, TRP-2 protein; details: B16F10, 48 h
Experimental: as §2

## VDGYPAAGY [VY-9, Val-Asp-Gly-Tyr-Pro-Ala- Ala-Gly-Tyr]
Tyr [1]; 1.6 µM
  Tyr mRNA expression vs control: significantly reduced the expression levels of all measured genes
Tyr [1]; vs control
  concentration from which Tyr mRNA expression decreased: 0.4 µM
Trp-1; 1.6 µM
  Trp-1 mRNA expression vs control: significantly reduced the expression levels of all measured genes
Trp-1; vs control
  concentration at which Trp-1 mRNA expression was reduced (highest only): 1.6 µM
Mitf; 1.6 µM, B16F10, 48 h
  MITF protein expression vs control: the expression of all proteins decreased compared to the control
Mitf; B16F10, 48 h, western blot
  concentration from which MITF protein expression decreased: 0.4 µM
Mitf; VY-9 1.6 µM vs arbutin 0.2 mM, 48 h
  MITF protein expression vs arbutin: only MITF showed a lower expression level
Tyr [2]; 1.6 µM
  TYR protein expression vs control: the expression of all proteins decreased compared to the control
Tyr [2]; western blot
  concentration from which TYR protein expression decreased: 0.4 µM
Trp-2; 0.2 µM
  TRP-2 protein level vs control: decreased slightly compared to the control
Trp-2; 1.6 µM
  TRP-2 protein expression vs control: the expression of all proteins decreased compared to the control
Trp-2; western blot
  concentration from which TRP-2 protein expression gradually decreased: 0.2 µM
